Values of other authors in patent US7338780B2, “Method for producing tripeptides and/or peptides longer than tripeptides” (Ajinomoto Co., Inc., priority 2002, dated 2008).
Residues, ends and D or L forms follow the SMILES beside them.

C[C@H](N)C(=O)N[C@@H](CCC(N)=O)C(=O)O [L-alanyl-L-glutamine] (H-Ala-Gln-OH)
water-solubility compared with L-glutamine: higher
